Measurements reported in article PMC6366420, “Design and synthesis of 4-piperazinyl quinoline derived urea/thioureas for anti-breast cancer activity by a hybrid pharmacophore approach” (Journal of Enzyme Inhibition and Medicinal Chemistry, 2019).

Experiments:
184B5 = experiment: SRB antiproliferative assay, 184B5 non-cancer breast cells; assay type: cell-based, human; settings: Homo sapiens; SRB, 48 h incubation, 184B5 non-cancer immortalised breast cells; read-out: GI50 184B5
Experimental: (§1) The human breast cancer cell lines MDA-MB468, MDA-MB231 and MCF-7 were purchased from ATCC and maintained in RPMI 1640 medium supplemented with 10% fetal bovine serum (Hyclone, Logan UT) and 2 mM L-glutamine. MCF10A and 184B5 immortalised breast cells were purchased from ATCC and maintained in mammary epithelial basal medium supplemented with an MEGM mammary epithelial singlequot kit (Cambrex). Cells were grown at 37 °C with 5% CO2, 95% air under the humidified conditions. Cell line authentication was carried out by Genetica DNA Laboratories (Burlington, NC) using a short tandem repeat profiling method (March 2015; July 2015; September 2016).
(§2) Cell cytotoxic effects were determined by a SRB-based protocol[2]^,[25].
(§3) The newly synthesised 4-piperazinylquinoline compounds (5–30) were evaluated for their antiproliferative effects using three breast cancer cell lines, for which the compounds were diluted to achieve seven different concentrations ranging from […]. Followed by 48 h incubation with the compound, cells were treated with sulforhodamine B (SRB) to measure their growth/viability (% of the untreated control) by spectrophotometer. The total cellular macromolecules levels known to accurately reflect by UV reading of SRB staining. […] The reference compounds CQ and cisplatin were included for the comparison.
(§4) We further assessed their antiproliferative effects on two non-cancer immortalised cell lines (184B5 and MCF10A). […] The antiproliferative effects of compound 23 on cancer cells are thus 7-fold (MDA-MB468 vs MCF10A) to 11-fold (MDA-MB231 vs 184B5) higher than matching non-cancer breast cells, which may indicate that compound 23 could potentially be safer than other compounds. Therefore, we examined it further to gain insights into its molecular mechanism of action.

[1] = system: breast cancer and non-cancer breast cell lines; experiment: SRB antiproliferative comparison of breast cancer and non-cancer breast cell lines; assay type: cell-based, human; settings: for antigrowth effect against cancer versus non-cancer cells (in words): three breast cancer lines vs 184B5 and MCF10A
Experimental: as §1, §2, §3, §4

MCF7 = experiment: SRB antiproliferative assay, MCF7; assay type: cell-based, human; settings: Homo sapiens; SRB, 48 h incubation, MCF7 breast cancer cells; read-out: GI50 MCF7
Experimental: as §1, §2, §3

MCF10A = experiment: SRB antiproliferative assay, MCF10A non-cancer breast cells; assay type: cell-based, human; settings: Homo sapiens, MCF-10A; SRB, 48 h incubation, MCF10A non-cancer immortalised breast cells; read-out: GI50 MCF10A
Experimental: as §1, §2, §3, §4

MDA-MB468 = experiment: SRB antiproliferative assay, MDA-MB468; assay type: cell-based, human; settings: Homo sapiens, MDA-MB-468, 48 h, SRB, 48 h incubation, MDA-MB468 breast cancer cells; read-out: GI50 MDA-MB468
Experimental: as §1, §2, §3

MDA-MB231 = experiment: SRB antiproliferative assay, MDA-MB231; assay type: cell-based, human; settings: Homo sapiens, MDA-MB-231, 48 h, SRB, 48 h incubation, MDA-MB231 triple-negative breast cancer cells; read-out: GI50 MDA-MB231
Experimental: as §1, §2, §3

SMILES | GI50 (184B5) | antigrowth effect against cancer versus non-cancer cells (in words) [1] | GI50 (MCF7) | GI50 (MCF10A) | melting point | GI50 (MDA-MB468) | GI50 (MDA-MB231) | higher activity than the reference compounds cisplatin and CQ ([1]; breast cancer cell lines, GI50 comparison)
S=C(Nc1ccc(Cl)cc1)N1CCN(c2ccnc3cc(Cl)ccc23)CC1 [Compound 20, 4-(7-Chloro-quinolin-4-yl)-piperazine-1-carbothioic acid (4-chloro-phenyl)-amide] | 14.4 ± 0.6 µM | higher activity against non-cancer cells than cancer cells | 20.4 ± 0.9 µM | 8.8 ± 0.7 µM | 145 to 146 °C | 33.1 ± 1.5 µM | 22.6 ± 1.4 µM | 
S=C(Nc1c(Cl)cc(Cl)cc1Cl)N1CCN(c2ccnc3cc(Cl)ccc23)CC1 [Compound 21, 4-(7-Chloro-quinolin-4-yl)-piperazine-1-carbothioic acid (2,4,6-trichloro-phenyl)-amide] | 4.7 ± 0.3 µM | comparable against cancer and non-cancer cells | 4 ± 0.3 µM | 6.8 ± 0.6 µM | 132 to 133 °C | 5.1 ± 0.2 µM | 7.7 ± 0.5 µM | 
S=C(Nc1cccc2ccccc12)N1CCN(c2ccnc3cc(Cl)ccc23)CC1 [Compound 22, 4-(7-Chloro-quinolin-4-yl)-piperazine-1-carbothioic acid naphthalen-1-ylamide] | 17.8 ± 0.6 µM | comparable against cancer and non-cancer cells | 30.1 ± 1.2 µM | 13.3 ± 1 µM | 107 to 108 °C | 10 ± 0.9 µM | 19.8 ± 1.1 µM | 
FC(F)(F)c1ccc2c(N3CCN(C(=S)Nc4ccccc4)CC3)ccnc2c1 [Compound 24, 4-(7-Trifluoromethyl-quinolin-4-yl)-piperazine-1-carbothioic acid phenylamide] | 24.4 ± 2 µM | much stronger activities against cancer than non-cancer cells | 7.5 ± 0.6 µM | 34.2 ± 1.3 µM | 187 to 188 °C | 14.1 ± 0.9 µM | 13.8 ± 0.8 µM | 
Cc1cccc(C)c1NC(=S)N1CCN(c2ccnc3cc(C(F)(F)F)ccc23)CC1 [Compound 25, 4-(7-Trifluoromethyl-quinolin-4-yl)-piperazine-1-carbothioic acid (2,6-dimethyl-phenyl)-amide] | 21.4 ± 1.3 µM | comparable against cancer and non-cancer cells | 5.2 ± 0.5 µM | 14.1 ± 1.5 µM | 105 to 106 °C | 13.3 ± 0.3 µM | 22.2 ± 1.7 µM | 
FC(F)(F)c1ccc(NC(=S)N2CCN(c3ccnc4cc(C(F)(F)F)ccc34)CC2)cc1 [Compound 26, 4-(7-Trifluoromethyl-quinolin-4-yl)-piperazine-1-carbothioic acid (4-trifluoromethyl-phenyl)-amide] | 8.8 ± 0.6 µM | comparable against cancer and non-cancer cells | 3.8 ± 0.3 µM | 10.7 ± 2 µM | 123 to 124 °C | 23.4 ± 0.9 µM | 16.5 ± 1.2 µM | 
FC(F)(F)c1ccc2c(N3CCN(C(=S)Nc4ccc(Cl)cc4)CC3)ccnc2c1 [Compound 27, 4-(7-Trifluoromethyl-quinolin-4-yl)-piperazine-1-carbothioic acid (4-chloro-phenyl)-amide] | 7.9 ± 0.6 µM | comparable against cancer and non-cancer cells | 7 ± 0.7 µM | 9.2 ± 1 µM | 165 to 166 °C | 11.8 ± 1.6 µM | 18.7 ± 2.3 µM | 
FC(F)(F)c1ccc2c(N3CCN(C(=S)Nc4c(Cl)cc(Cl)cc4Cl)CC3)ccnc2c1 [Compound 28, 4-(7-Trifluoromethyl-quinolin-4-yl)-piperazine-1-carbothioic acid (2,4,6-trichloro-phenyl)-amide] | 5.5 ± 0.5 µM | higher activity against non-cancer cells than cancer cells | 11.8 ± 1 µM | 8.2 ± 0.7 µM | 112 to 114 °C | 23.4 ± 1.9 µM | 12.2 ± 0.9 µM | 
FC(F)(F)c1ccc2c(N3CCN(C(=S)Nc4cccc5ccccc45)CC3)ccnc2c1 [Compound 29, 4-(7-Trifluoromethyl-quinolin-4-yl)-piperazine-1-carbothioic acid naphthalen-1-ylamide] | 50.6 ± 3.8 µM | much stronger activities against cancer than non-cancer cells | 6.4 ± 0.7 µM | 69.4 ± 3.7 µM | 137 to 138 °C | 9.4 ± 0.8 µM | 9.8 ± 1 µM | 4-8 fold
FC(F)(F)c1ccc2c(N3CCN(C(=S)NCCN4CCOCC4)CC3)ccnc2c1 [Compound 30, 4-(7-Trifluoromethyl-quinolin-4-yl)-piperazine-1-carbothioic acid (2-morpholin-4-yl-ethyl)-amide] | 17.4 ± 1 µM | much stronger activities against cancer than non-cancer cells | 6.2 ± 0.7 µM | 18.9 ± 1.3 µM | 134 to 135 °C | 14.2 ± 0.6 µM | 11.8 ± 0.9 µM | 
